Reference: PubChem BioAssay (NCI)
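Briefly, cells in 96-well plates were exposed to five compound concentrations for 48 h, and endpoints were estimated by linear interpolation. GI50 is the concentration that inhibits growth by half. The concentration for full growth arrest is given as TGI.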

Experiments:
Test in all cases: NCI-60 cell line screen, 48 h
HCT-116 colon = test system: HCT-116 colon
HOP-62 NSCLC = test system: HOP-62 NSCLC
MDA-MB-231 breast = test system: MDA-MB-231 breast
UO-31 renal = test system: UO-31 renal
RXF 393 renal = test system: RXF 393 renal
NCI/ADR-RES ovarian = test system: NCI/ADR-RES ovarian
OVCAR-3 ovarian = test system: OVCAR-3 ovarian
HL-60(TB) leukemia = test system: HL-60(TB) leukemia
A549 NSCLC = test system: A549 NSCLC
OVCAR-4 ovarian = test system: OVCAR-4 ovarian
OVCAR-5 ovarian = test system: OVCAR-5 ovarian
COLO 205 colon = test system: COLO 205 colon
A498 renal = test system: A498 renal
SK-MEL-28 melanoma = test system: SK-MEL-28 melanoma
UACC-62 melanoma = test system: UACC-62 melanoma
NCI-H226 lung = test system: NCI-H226 lung
HS 578T breast = test system: HS 578T breast
TK-10 renal = test system: TK-10 renal
SR leukemia = test system: SR leukemia
SF-295 CNS = test system: SF-295 CNS
MALME-3M melanoma = test system: MALME-3M melanoma
RPMI-8226 leukemia = test system: RPMI-8226 leukemia
U251 CNS = test system: U251 CNS
786-0 renal = test system: 786-0 renal
DU-145 prostate = test system: DU-145 prostate
HCT-15 colon = test system: HCT-15 colon
SK-OV-3 ovarian = test system: SK-OV-3 ovarian
MCF7 breast = test system: MCF7 breast
SNB-75 CNS = test system: SNB-75 CNS
EKVX NSCLC = test system: EKVX NSCLC
SN12C renal = test system: SN12C renal
NCI-H522 lung = test system: NCI-H522 lung
MDA-MB-435 = test system: MDA-MB-435
IGROV1 ovarian = test system: IGROV1 ovarian
NCI-H460 lung = test system: NCI-H460 lung
HT29 colon = test system: HT29 colon
OVCAR-8 ovarian = test system: OVCAR-8 ovarian
HOP-92 NSCLC = test system: HOP-92 NSCLC
SNB-19 CNS = test system: SNB-19 CNS
SF-268 CNS = test system: SF-268 CNS
UACC-257 melanoma = test system: UACC-257 melanoma
CCRF-CEM leukemia = test system: CCRF-CEM leukemia
ACHN renal = test system: ACHN renal
SW-620 colon = test system: SW-620 colon
SF-539 CNS = test system: SF-539 CNS
HCC-2998 colon = test system: HCC-2998 colon
SK-MEL-2 melanoma = test system: SK-MEL-2 melanoma
T-47D breast = test system: T-47D breast
KM12 colon = test system: KM12 colon
LOX IMVI melanoma = test system: LOX IMVI melanoma
MOLT-4 leukemia = test system: MOLT-4 leukemia
BT-549 breast = test system: BT-549 breast
SK-MEL-5 melanoma = test system: SK-MEL-5 melanoma
NCI-H23 lung = test system: NCI-H23 lung
PC-3 prostate = test system: PC-3 prostate
M14 melanoma = test system: M14 melanoma

CCN(Cc1ccccc1)c1ccc(/C=C2\COc3ccccc3C2=O)cc1 was tested, and the GI50 (HCT-116 colon) was 270 µM, the TGI (HCT-116 colon) was > 1000 µM and the GI50 (HOP-62 NSCLC) was > 1000 µM. For the same compound, the TGI (HOP-62 NSCLC) was > 1000 µM, the GI50 (MDA-MB-231 breast) was 896 µM and the TGI (MDA-MB-231 breast) was > 1000 µM. The GI50 (UO-31 renal) was 286 µM, the TGI (UO-31 renal) was > 1000 µM and the GI50 (RXF 393 renal) was 758 µM. For the same compound, the TGI (RXF 393 renal) was > 1000 µM, the GI50 (NCI/ADR-RES ovarian) was 351 µM and the TGI (NCI/ADR-RES ovarian) was > 1000 µM. For the same compound, the GI50 (OVCAR-3 ovarian) was 288 µM, the TGI (OVCAR-3 ovarian) was > 1000 µM and the GI50 (HL-60(TB) leukemia) was 221 µM. The TGI (HL-60(TB) leukemia) was > 1000 µM, the GI50 (A549 NSCLC) was > 1000 µM and the TGI (A549 NSCLC) was > 1000 µM. The GI50 (OVCAR-4 ovarian) was 761 µM, the TGI (OVCAR-4 ovarian) was > 1000 µM and the GI50 (OVCAR-5 ovarian) was > 1000 µM. The TGI (OVCAR-5 ovarian) was > 1000 µM, the GI50 (COLO 205 colon) was > 1000 µM and the TGI (COLO 205 colon) was > 1000 µM. The GI50 (A498 renal) was > 1000 µM, the TGI (A498 renal) was > 1000 µM and the GI50 (SK-MEL-28 melanoma) was > 1000 µM. The TGI (SK-MEL-28 melanoma) was > 1000 µM, the GI50 (UACC-62 melanoma) was 304 µM and the TGI (UACC-62 melanoma) was > 1000 µM. For the same compound, the GI50 (NCI-H226 lung) was > 1000 µM, the TGI (NCI-H226 lung) was > 1000 µM and the GI50 (HS 578T breast) was > 1000 µM. The TGI (HS 578T breast) was > 1000 µM, the GI50 (TK-10 renal) was > 1000 µM and the TGI (TK-10 renal) was > 1000 µM. For the same compound, the GI50 (SR leukemia) was 54 µM, the TGI (SR leukemia) was > 1000 µM and the GI50 (SF-295 CNS) was > 1000 µM. The TGI (SF-295 CNS) was > 1000 µM, the GI50 (MALME-3M melanoma) was > 1000 µM and the TGI (MALME-3M melanoma) was > 1000 µM. For the same compound, the GI50 (RPMI-8226 leukemia) was 146 µM, the TGI (RPMI-8226 leukemia) was > 1000 µM and the GI50 (U251 CNS) was > 1000 µM. For the same compound, the TGI (U251 CNS) was > 1000 µM, the GI50 (786-0 renal) was > 1000 µM and the TGI (786-0 renal) was > 1000 µM. The GI50 (DU-145 prostate) was > 1000 µM, the TGI (DU-145 prostate) was > 1000 µM and the GI50 (HCT-15 colon) was 106 µM. The TGI (HCT-15 colon) was > 1000 µM, the GI50 (SK-OV-3 ovarian) was > 1000 µM and the TGI (SK-OV-3 ovarian) was > 1000 µM. For the same compound, the GI50 (MCF7 breast) was 69.4 µM, the TGI (MCF7 breast) was > 1000 µM and the GI50 (SNB-75 CNS) was > 1000 µM. For the same compound, the TGI (SNB-75 CNS) was > 1000 µM, the GI50 (EKVX NSCLC) was 538 µM and the TGI (EKVX NSCLC) was > 1000 µM. For the same compound, the GI50 (SN12C renal) was > 1000 µM, the TGI (SN12C renal) was > 1000 µM and the GI50 (NCI-H522 lung) was 156 µM. For the same compound, the TGI (NCI-H522 lung) was > 1000 µM, the GI50 (MDA-MB-435) was 47 µM and the TGI (MDA-MB-435) was 458 µM. The GI50 (IGROV1 ovarian) was > 1000 µM, the TGI (IGROV1 ovarian) was > 1000 µM and the GI50 (NCI-H460 lung) was > 1000 µM. The TGI (NCI-H460 lung) was > 1000 µM, the GI50 (HT29 colon) was 135 µM and the TGI (HT29 colon) was > 1000 µM. The GI50 (OVCAR-8 ovarian) was > 1000 µM, the TGI (OVCAR-8 ovarian) was > 1000 µM and the GI50 (HOP-92 NSCLC) was 553 µM. For the same compound, the TGI (HOP-92 NSCLC) was > 1000 µM, the GI50 (SNB-19 CNS) was > 1000 µM and the TGI (SNB-19 CNS) was > 1000 µM. For the same compound, the GI50 (SF-268 CNS) was > 1000 µM, the TGI (SF-268 CNS) was > 1000 µM and the GI50 (UACC-257 melanoma) was > 1000 µM. For the same compound, the TGI (UACC-257 melanoma) was > 1000 µM, the GI50 (CCRF-CEM leukemia) was 73.5 µM and the TGI (CCRF-CEM leukemia) was > 1000 µM. For the same compound, the GI50 (ACHN renal) was > 1000 µM, the TGI (ACHN renal) was > 1000 µM and the GI50 (SW-620 colon) was 146 µM. For the same compound, the TGI (SW-620 colon) was > 1000 µM, the GI50 (SF-539 CNS) was > 1000 µM and the TGI (SF-539 CNS) was > 1000 µM. The GI50 (HCC-2998 colon) was > 1000 µM, the TGI (HCC-2998 colon) was > 1000 µM and the GI50 (SK-MEL-2 melanoma) was > 1000 µM. The TGI (SK-MEL-2 melanoma) was > 1000 µM, the GI50 (T-47D breast) was 213 µM and the TGI (T-47D breast) was > 1000 µM. For the same compound, the GI50 (KM12 colon) was 376 µM, the TGI (KM12 colon) was > 1000 µM and the GI50 (LOX IMVI melanoma) was 243 µM. For the same compound, the TGI (LOX IMVI melanoma) was > 1000 µM, the GI50 (MOLT-4 leukemia) was 105 µM and the TGI (MOLT-4 leukemia) was > 1000 µM. The GI50 (BT-549 breast) was 340 µM, the TGI (BT-549 breast) was > 1000 µM and the GI50 (SK-MEL-5 melanoma) was 398 µM. For the same compound, the TGI (SK-MEL-5 melanoma) was > 1000 µM, the GI50 (NCI-H23 lung) was 818 µM and the TGI (NCI-H23 lung) was > 1000 µM. For the same compound, the GI50 (PC-3 prostate) was 343 µM, the TGI (PC-3 prostate) was > 1000 µM and the GI50 (M14 melanoma) was 330 µM. For the same compound, the TGI (M14 melanoma) was > 1000 µM.
